The results in this text go back to ChEMBL document CHEMBL2321716, “Exploring a new frontier in cancer treatment: targeting the ubiquitin and ubiquitin-like activating enzymes” (J Med Chem, 2013).

Each structure is given as a SMILES string. In brackets after ≈: the same amount, converted by molar mass. A value given as a limit tells only on which side of the number the result lay.

Assay [1] can be described thus: Inhibition of N-terminal GST-tagged human UAE-catalyzed [32P]-AMP:[a-32P]-ATP exchange expressed in HI5 insect cells by TLC analysis.
Assay [2] is described as follows: Inhibition of N-terminal GST-tagged human UAE-catalyzed UAE-Ub thioester intermediate formation expressed in HI5 insect cells after 5 mins by SDS-PAGE analysis.
Assay [3] is described as follows: Inhibition of N-terminal GST-tagged human UAE-catalyzed UAE-Ub thioester intermediate formation expressed in HI5 insect cells after 30 mins by immunoblotting analysis. For orientation: A western blot detects proteins with antibodies after separation by electrophoresis.
The nature of assay [4]: Inhibition of mouse recombinant His6-tagged UAE-catalyzed UAE-Ub thioester intermediate formation expressed in insect cells by SDS-PAGE analysis.
Assay [5] concerns PPC-1. The experiment in a line: Cytotoxicity against human PPC1 cells assessed as induction of cell death after 72 hrs by Alamar blue assay. The following applies: PPC-1, 72 h, read-out: LD50 (the source's name). It counts as functional. A general note: The colour change of resazurin is a common sign of viable cells or microbes.
The test system of assay [6] is HeLa. Nature of the assay: Cytotoxicity against human HeLa cells assessed as induction of cell death after 72 hrs by Alamar blue assay. It counts as functional. The conditions noted are these: read-out: LD50 (the source's name).
The nature of assay [7]: Cytotoxicity against human OVACR3 cells assessed as induction of cell death after 72 hrs by Alamar blue assay. It counts as functional. The conditions noted are these: OVACR3, 72 h, read-out: LD50 (the source's name).
The test system of assay [8] is FaDu. Nature of the assay: Cytotoxicity against human FADU cells assessed as induction of cell death after 72 hrs by Alamar blue assay. It counts as functional. The conditions noted are these: read-out: LD50 (the source's name).
A short description of assay [9]: Cytotoxicity against human KMS11 cells assessed as induction of cell death after 72 hrs by Alamar blue assay. It counts as functional. The conditions noted are these: KMS-11, 72 h, read-out: LD50 (the source's name).
The nature of assay [10]: Cytotoxicity against human U226 cells assessed as induction of cell death after 72 hrs by Alamar blue assay. It counts as functional. The following applies: U226, 72 h, read-out: LD50 (the source's name).
The nature of assay [11]: Cytotoxicity against human Leukemia cells assessed as induction of cell death after 72 hrs by Alamar blue assay. The conditions noted are these: read-out: LD50 (the source's name). It counts as functional.
Assay [12] deals with LP-1. The experiment in a line: Cytotoxicity against human LP-1 cells assessed as induction of cell death after 72 hrs by Alamar blue assay. The assay is classed as functional. The conditions noted are these: LP-1, 72 h, read-out: LD50 (the source's name).
The nature of assay [13]: Inhibition of GST-tagged human recombinant UAE-catalyzed UAE-Ub thioester intermediate formation after 30 mins by fluorescence assay.
Assay [14] has as its system HT-29. Nature of the assay: Cytotoxicity against human HT-29 cells assessed as induction of cell death after 72 hrs by Alamar blue assay. The assay is classed as functional. The following applies: HT-29, 72 h, read-out: LD50 (the source's name).
For assay [15], the system named is DU-145. The experiment in a line: Cytotoxicity against human DU145 cells assessed as induction of cell death after 72 hrs by Alamar blue assay. The following applies: DU-145, 72 h, read-out: LD50 (the source's name). The assay is classed as functional.
The nature of assay [16]: Cytotoxicity against human MDA468 cells assessed as induction of cell death after 72 hrs by Alamar blue assay. The assay is classed as functional. The conditions noted are these: MDA-MB-468, 72 h, read-out: LD50 (the source's name).
Assay [17] has as its system T47D. Nature of the assay: Cytotoxicity against human T47D cells assessed as induction of cell death after 72 hrs by Alamar blue assay. It counts as functional. The conditions noted are these: read-out: LD50 (the source's name).
Assay [18] in a line: Inhibition of UAE-catalyzed UAE-Ub thioester intermediate formation in human RPE cells by immunoblotting analysis. The assay is classed as cell-based.
Assay [19] can be described thus: Inhibition of UAE (unknown origin)-catalyzed UAE-Ub intermediate formation. Also on record: species or system Homo sapiens.

`CCCCCCCCCCNCCSSCc1ccc(Cl)cc1`: the figures for the IC50 in [1] and in [2] were 13 µM and 9 µM, respectively.
As for `CCOC(=O)c1ccc(N2NC(=O)/C(=C/c3ccc([N+](=O)[O-])o3)C2=O)cc1`, the IC50 in assay [3] was under 10 µM; in assay [1], 6.4 µM; in assay [4] it was under 10 µM.
As to `O=C1NN(c2ccc(F)c(Cl)c2)C(=O)/C1=C\c1ccc([N+](=O)[O-])o1`, the CC50 was 15 µM in [5]; 15 µM in assay [6]; 15 µM in assay [7]; 15 µM in [8]; at most 3 µM in assay [9]; at most 3 µM in assay [10]. In addition, the CC50 in assay [11] is under 10 µM; in assay [12], at most 3 µM; in assay [14], 15 µM; in assay [15], 15 µM; in [16] it was 15 µM; in assay [17], 15 µM. Besides, the IC50 in assay [13] was found to be 20 µM.
`CCOC(=O)N1CCN(/[N+]([O-])=N/Oc2ccc([N+](=O)[O-])cc2[N+](=O)[O-])CC1` had an IC50 in assay [18] of 2 µM.
For the molecule `CC(C)(O)/C=C/[C@@]12[C@H]3[C@@H](O)[C@@H]4O[C@@H]4[C@]1(O)OC(C)(C)[C@@H]2C=C1C(=O)[C@H]2O[C@H]2[C@H](O)[C@H]13` [PANEPOPHENANTHRIN], the 50% inhibitory concentration (IC50) in assay [19] was 17 µg/mL (≈ 40.4 µM).

As a reminder, the IC50 is the concentration that gives 50% inhibition.
